System: brown marmorated stink bug (BMSB), Halyomorpha halys
Assay: Field trials of experimental pheromone constituents, baited black pyramid traps
Assay type: in vivo
Settings: for field attractiveness to BMSB (in words): 2011-2012 field trapping
Description: Field Bioassays. Field Trials of Experimental Pheromone Constituents: Pyramid traps based on dimensions previously used for native stink bugs (Leskey and Hogmire 2005, Hogmire and Leskey 2006) and for brown marmorated stink bugs (Leskey et al. 2012c) were used for all trials. […] Each panel was 1.22 m high, 52 cm wide at the base, and 7 cm wide at the top. Collection jars were constructed based on previously published dimensions (Hogmire and Leskey 2006) with internal cone opening of 1.6 cm with trimmed wire edging to reduce escape. In addition, a Hercon Vaportape™ II (Hercon Environmental, Emigsville, Pa.) was added as a killing agent to prevent escape from traps. In a preliminary study, addition of a killing agent increased trap captures ˜250%. Traps were deployed ˜5 meters from the border of apple and pear orchards at the Appalachian Fruit Research Station or in the border area between wood lots and row crops in Kearneysville, W. Va., Shepherdstown, W. Va., Keedysville, Md., and Beltsville, Md. Traps were spaced ˜50 meters apart. Traps were baited with compounds identified from headspace collections of male BMSB, synthesized and formulated into gray rubber septa or left unbaited.
Fourteen trials were conducted between 19 Apr. to 20 Oct. 2011 (Table 3) and four trials between 20 Mar. to 10 Oct. 2012 (Table 4). Traps were checked a minimum of twice weekly and the treatments were re-randomized at each collection.
All adults and nymphs were removed from traps and recorded. Hercon Vaportape™ strips were changed at four week intervals and lures were changed at two week intervals. Comparisons of adult and nymphal captures used the SAS GLM procedure to evaluate effect of treatment and replicate followed by Tukey's HSD if the model was significant. Appropriate transformations were used to stabilize normality if needed. The effect of sex was dropped from all models because it was never a significant factor.

[1] = AFRS 2011, Trial Eight, 11 August-6 Sept.
[2] = AFRS 2011, Trial One, 19 April-10 May
[3] = Beltsville 2011, Trial Eight, 11 August-6 Sept.
[4] = Beltsville 2011, Trial One, 19 April-10 May
[5] = AFRS 2012, Trial Two, 31 July-14 August
[6] = Beltsville 2012, Trial Two, 1-14 August
[7] = AFRS 2012, Trial Three, 14 August-13 September
[8] = Beltsville 2012, Trial Three, 14 August-11 September
[9] = AFRS 2012, Trial Four, 22 September-10 October
[10] = Beltsville 2012, Trial Four, 17 September-2 October

| SMILES | field attractiveness to BMSB (in words) | Mean number BMSB adults (±SE) captured [5] [bc per treatment] | Mean number BMSB nymphs (±SE) captured [5] [ab per treatment] | Mean number BMSB adults (±SE) captured [6] [ab per treatment] | Mean number BMSB nymphs (±SE) captured [6] [per treatment] | Mean number BMSB adults (±SE) captured [7] | Mean number BMSB nymphs (±SE) captured [7] | Mean number BMSB adults (±SE) captured [8] | Mean number BMSB nymphs (±SE) captured [8] | Mean number BMSB adults (±SE) captured [9] | Mean number BMSB nymphs (±SE) captured [9] [per treatment] | Mean number BMSB adults (±SE) captured [10] [a per treatment] | Mean number BMSB nymphs (±SE) captured [10] [per treatment] | other results |
| --- | --- | --- | --- | --- | --- | --- | --- | --- | --- | --- | --- | --- | --- | --- |
| CC1=C[C@H](O)[C@@H]([C@@H](C)CC[C@@H]2OC2(C)C)CC1 [Lure #1, (3R,6R,7S,10S)-10,11-epoxy-1-bisabolen-3-ol] | inactive |  |  |  |  |  |  |  |  |  |  |  |  | Mean number BMSB adults (±SE) captured [1]: 3.08 ± 0.55b per trap per sample; Mean number BMSB nymphs (±SE) captured [1]: 14.63 ± 6.06 per trap per sample; Mean number BMSB adults (±SE) captured [2]: 0.03 ± 0.03 per trap per sample; Mean number BMSB nymphs (±SE) captured [2]: 0.00 ± 0.00 per trap per sample; Mean number BMSB adults (±SE) captured [3]: 0.55 ± 0.13ab per treatment; Mean number BMSB nymphs (±SE) captured [3]: 3.49 ± 0.67 per treatment; Mean number BMSB adults (±SE) captured [4]: 0.00 ± 0.20b per treatment; Mean number BMSB nymphs (±SE) captured [4]: 0.00 ± 0.00 per treatment |
| C[C@H](CC[C@@H]1OC1(C)C)[C@@H]1C=C[C@](C)(O)CC1 [Lure #17, (3R,6R,7R,10S)-10,11-epoxy-1-bisabolen-3-ol] |  | 0.40 ± 0.40 | 7.15 ± 2.65 | 0.20 ± 0.12 | 20.30 ± 8.61 |  |  |  |  |  |  |  |  |  |
| C[C@H](CC[C@H]1OC1(C)C)[C@@H]1C=C[C@](C)(O)CC1 [Lure #23, (3R,6R,7R,10R)-10,11-epoxy-1-bisabolen-3-ol] | not attractive |  |  |  |  | 0.75 ± 0.29e per treatment | 2.50 ± 0.53c per treatment | 0.90 ± 0.26b per treatment | 8.38 ± 2.90bc per treatment |  |  |  |  |  |
| C[C@H](CC[C@@H]1OC1(C)C)[C@H]1C=C[C@](C)(O)CC1 [Lure #18, (3R,6S,7R,10S)-10,11-epoxy-1-bisabolen-3-ol] | moderately attractive | 0.90 ± 0.38 | 6.50 ± 2.08 | 0.35 ± 0.13 | 23.45 ± 9.95 |  |  |  |  | 2.48 ± 0.70abc per treatment | 0.60 ± 0.37 | 4.15 ± 1.17 | 0.05 ± 0.05 |  |
| C[C@H](CC[C@@H]1OC1(C)C)[C@H]1C=C[C@@](C)(O)CC1 [Lure #22, (3S,6S,7R,10S)-10,11-epoxy-1-bisabolen-3-ol] | more attractive than #23 |  |  |  |  | 2.73 ± 0.50d per treatment | 7.30 ± 2.02bc per treatment | 2.65 ± 0.44a per treatment | 21.90 ± 6.49ab per treatment | 1.36 ± 0.59bc per treatment | 0.80 ± 0.57 | 5.05 ± 1.01 | 0.15 ± 0.11 | field attractiveness to BMSB (in words) (listed as stereoisomer 1): attracted BMSB females, males, and nymphs |

Source: patent US9451771B2, “Compositions and methods to attract the brown marmorated stink bug (BMSB), Halyomorpha halys” (United States of America as Represented by the Secretary of …, priority 2012, dated 2016)
